Peptide text beside a SMILES is read from it.
Tests used:
NK1 receptor = molecular target: T1, NK1 receptor (Cavia porcellus, UniProt P30547); assay: guinea pig ileum assay of NK1 receptor activity against substance P; format: cell-based; settings: Table O; for Kb: read-out: NK1 : GPI pA2 (± s.e.m.) (converted)
T1 construct: a standard guinea pig ileum assay of NK1 receptor activity; from tissue; host or cells: guinea pig ileum
Excerpt: In order to illustrate the potential of blocking two different receptor populations with a single compound a consensus NK1 receptor antagonist (DArg-DPro-Lys-Pro-Gln-Asn-DPhe-Phe-DTrp-Leu-Nle) was synthesized. […] Once the activity of this reference ligand was established, a series of lysine containing monomers formed by the systematic substitution of a lysine residue sequentially through the reference peptide was synthesized.

BK2 receptor = molecular target: T2, BK2 receptor (Rattus norvegicus, UniProt P25023); assay: cell-based
T2 sequence (P25023 1-396): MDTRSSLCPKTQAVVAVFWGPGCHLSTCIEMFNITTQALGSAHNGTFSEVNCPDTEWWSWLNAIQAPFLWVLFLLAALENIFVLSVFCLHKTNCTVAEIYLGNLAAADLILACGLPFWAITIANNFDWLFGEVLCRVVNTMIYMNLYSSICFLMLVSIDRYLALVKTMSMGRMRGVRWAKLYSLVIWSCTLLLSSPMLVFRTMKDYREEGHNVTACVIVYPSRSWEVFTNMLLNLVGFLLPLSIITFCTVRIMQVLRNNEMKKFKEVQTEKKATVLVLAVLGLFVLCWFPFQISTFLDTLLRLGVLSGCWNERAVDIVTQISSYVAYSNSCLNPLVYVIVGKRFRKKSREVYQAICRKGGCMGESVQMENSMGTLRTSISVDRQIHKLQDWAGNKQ

T1 sequence (P30547 whole entry): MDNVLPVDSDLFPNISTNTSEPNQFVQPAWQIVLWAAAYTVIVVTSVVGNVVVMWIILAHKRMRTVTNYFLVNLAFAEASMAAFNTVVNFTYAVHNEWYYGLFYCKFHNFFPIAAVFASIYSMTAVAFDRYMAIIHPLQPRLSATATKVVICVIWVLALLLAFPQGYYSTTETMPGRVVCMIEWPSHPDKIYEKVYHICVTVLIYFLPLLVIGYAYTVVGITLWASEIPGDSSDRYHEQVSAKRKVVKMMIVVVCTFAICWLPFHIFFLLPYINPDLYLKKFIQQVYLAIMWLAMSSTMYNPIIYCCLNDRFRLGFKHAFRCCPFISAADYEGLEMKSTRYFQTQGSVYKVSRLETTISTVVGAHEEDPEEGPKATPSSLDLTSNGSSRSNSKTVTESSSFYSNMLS

CCCC[C@H](NC(=O)[C@H](CC(C)C)NC(=O)[C@@H](Cc1c[nH]c2ccccc12)NC(=O)[C@H](CCCCNC(=O)CCCCCN1C(=O)CC(SC[C@H](NC(=O)[C@H](Cc2ccccc2)NC(=O)CNC(=O)[C@@H]2C[C@@H](O)CN2C(=O)[C@@H]2CCCN2C(=O)[C@H](CCCNC(=N)N)NC(=O)[C@H](N)CCCNC(=N)N)C(=O)N[C@H](Cc2ccccc2)C(=O)N[C@@H](CC(C)C)C(=O)N[C@@H](CCCNC(=N)N)C(=O)O)C1=O)NC(=O)[C@@H](Cc1ccccc1)NC(=O)[C@H](CC(N)=O)NC(=O)[C@H](CCC(N)=O)NC(=O)[C@@H]1CCCN1C(=O)[C@H](CCCCN)NC(=O)[C@H]1CCCN1C(=O)[C@H](N)CCCNC(=N)N)C(N)=O (some centres unmarked) [CP-0397] (HELM PEPTIDE1{[dR].[dP].K.P.Q.N.[dF].K.[dW].L.[Nle].[am]}|PEPTIDE2{[dR].R.P.[Hyp].G.F.C.[dF].L.R}|CHEM1{[O=C1CC([*:2])C(=O)N1CCCCCC(=O)[*:1]]}$PEPTIDE1,CHEM1,8:R3-1:R1|PEPTIDE2,CHEM1,7:R3-1:R2$$$V2.0)
NK1 : GPI pA2 (± s.e.m.) (NK1 receptor): Inactive
Kb (BK2 receptor): 0.02 µM

CCCC[C@H](NC(=O)[C@H](CC(C)C)NC(=O)[C@@H](Cc1c[nH]c2ccccc12)NC(=O)[C@H](Cc1ccccc1)NC(=O)[C@@H](Cc1ccccc1)NC(=O)[C@H](CCCCNC(=O)CCCCCN1C(=O)CC(SC[C@H](NC(=O)[C@H](Cc2ccccc2)NC(=O)CNC(=O)[C@@H]2C[C@@H](O)CN2C(=O)[C@@H]2CCCN2C(=O)[C@H](CCCNC(=N)N)NC(=O)[C@H](N)CCCNC(=N)N)C(=O)N[C@H](Cc2ccccc2)C(=O)N[C@@H](CC(C)C)C(=O)N[C@@H](CCCNC(=N)N)C(=O)O)C1=O)NC(=O)[C@H](CCC(N)=O)NC(=O)[C@@H]1CCCN1C(=O)[C@H](CCCCN)NC(=O)[C@H]1CCCN1C(=O)[C@H](N)CCCNC(=N)N)C(N)=O (some centres unmarked) [CP-0395] (HELM PEPTIDE1{[dR].[dP].K.P.Q.K.[dF].F.[dW].L.[Nle].[am]}|PEPTIDE2{[dR].R.P.[Hyp].G.F.C.[dF].L.R}|CHEM1{[O=C1CC([*:2])C(=O)N1CCCCCC(=O)[*:1]]}$PEPTIDE1,CHEM1,6:R3-1:R1|PEPTIDE2,CHEM1,7:R3-1:R2$$$V2.0)
Kb (NK1 receptor): 0.501 µM
Kb (BK2 receptor): 0.0501 µM

CCCC[C@H](NC(=O)[C@H](CC(C)C)NC(=O)[C@@H](Cc1c[nH]c2ccccc12)NC(=O)[C@H](Cc1ccccc1)NC(=O)[C@@H](Cc1ccccc1)NC(=O)[C@H](CC(N)=O)NC(=O)[C@H](CCC(N)=O)NC(=O)[C@@H]1CCCN1C(=O)[C@H](CCCCN)NC(=O)[C@H](CCCCNC(=O)CCCCCN1C(=O)CC(SC[C@H](NC(=O)[C@H](Cc2ccccc2)NC(=O)CNC(=O)[C@@H]2C[C@@H](O)CN2C(=O)[C@@H]2CCCN2C(=O)[C@H](CCCNC(=N)N)NC(=O)[C@H](N)CCCNC(=N)N)C(=O)N[C@H](Cc2ccccc2)C(=O)N[C@@H](CC(C)C)C(=O)N[C@@H](CCCNC(=N)N)C(=O)O)C1=O)NC(=O)[C@H](N)CCCNC(=N)N)C(N)=O (some centres unmarked) [CP-0391] (HELM PEPTIDE1{[dR].K.K.P.Q.N.[dF].F.[dW].L.[Nle].[am]}|PEPTIDE2{[dR].R.P.[Hyp].G.F.C.[dF].L.R}|CHEM1{[O=C1CC([*:2])C(=O)N1CCCCCC(=O)[*:1]]}$PEPTIDE1,CHEM1,2:R3-1:R1|PEPTIDE2,CHEM1,7:R3-1:R2$$$V2.0)
Kb (NK1 receptor): 10 µM
Kb (BK2 receptor): 0.0794 µM

CCCC[C@H](NC(=O)[C@H](CC(C)C)NC(=O)[C@H](CCCCNC(=O)CCCCCN1C(=O)CC(SC[C@H](NC(=O)[C@H](Cc2ccccc2)NC(=O)CNC(=O)[C@@H]2C[C@@H](O)CN2C(=O)[C@@H]2CCCN2C(=O)[C@H](CCCNC(=N)N)NC(=O)[C@H](N)CCCNC(=N)N)C(=O)N[C@H](Cc2ccccc2)C(=O)N[C@@H](CC(C)C)C(=O)N[C@@H](CCCNC(=N)N)C(=O)O)C1=O)NC(=O)[C@H](Cc1ccccc1)NC(=O)[C@@H](Cc1ccccc1)NC(=O)[C@H](CC(N)=O)NC(=O)[C@H](CCC(N)=O)NC(=O)[C@@H]1CCCN1C(=O)[C@H](CCCCN)NC(=O)[C@H]1CCCN1C(=O)[C@H](N)CCCNC(=N)N)C(N)=O (some centres unmarked) [CP-0398] (HELM PEPTIDE1{[dR].[dP].K.P.Q.N.[dF].F.K.L.[Nle].[am]}|PEPTIDE2{[dR].R.P.[Hyp].G.F.C.[dF].L.R}|CHEM1{[O=C1CC([*:2])C(=O)N1CCCCCC(=O)[*:1]]}$PEPTIDE1,CHEM1,9:R3-1:R1|PEPTIDE2,CHEM1,7:R3-1:R2$$$V2.0)
NK1 : GPI pA2 (± s.e.m.) (NK1 receptor): Inactive
Kb (BK2 receptor): 0.398 µM

CCCC[C@H](NC(=O)[C@H](CC(C)C)NC(=O)[C@@H](Cc1c[nH]c2ccccc12)NC(=O)[C@H](Cc1ccccc1)NC(=O)[C@@H](Cc1ccccc1)NC(=O)[C@H](CC(N)=O)NC(=O)[C@H](CCC(N)=O)NC(=O)[C@@H]1CCCN1C(=O)[C@H](CCCCNC(=O)CCCCCN1C(=O)CC(SC[C@H](NC(=O)[C@H](Cc2ccccc2)NC(=O)CNC(=O)[C@@H]2C[C@@H](O)CN2C(=O)[C@@H]2CCCN2C(=O)[C@H](CCCNC(=N)N)NC(=O)[C@H](N)CCCNC(=N)N)C(=O)N[C@H](Cc2ccccc2)C(=O)N[C@@H](CC(C)C)C(=O)N[C@@H](CCCNC(=N)N)C(=O)O)C1=O)NC(=O)[C@H]1CCCN1C(=O)[C@H](N)CCCNC(=N)N)C(N)=O (some centres unmarked) [CP-0392] (HELM PEPTIDE1{[dR].[dP].K.P.Q.N.[dF].F.[dW].L.[Nle].[am]}|PEPTIDE2{[dR].R.P.[Hyp].G.F.C.[dF].L.R}|CHEM1{[O=C1CC([*:2])C(=O)N1CCCCCC(=O)[*:1]]}$PEPTIDE1,CHEM1,3:R3-1:R1|PEPTIDE2,CHEM1,7:R3-1:R2$$$V2.0)
Kb (NK1 receptor): 5.01 µM
Kb (BK2 receptor): 0.1 µM

CCCC[C@H](NC(=O)[C@H](CCCCNC(=O)CCCCCN1C(=O)CC(SC[C@H](NC(=O)[C@H](Cc2ccccc2)NC(=O)CNC(=O)[C@@H]2C[C@@H](O)CN2C(=O)[C@@H]2CCCN2C(=O)[C@H](CCCNC(=N)N)NC(=O)[C@H](N)CCCNC(=N)N)C(=O)N[C@H](Cc2ccccc2)C(=O)N[C@@H](CC(C)C)C(=O)N[C@@H](CCCNC(=N)N)C(=O)O)C1=O)NC(=O)[C@@H](Cc1c[nH]c2ccccc12)NC(=O)[C@H](Cc1ccccc1)NC(=O)[C@@H](Cc1ccccc1)NC(=O)[C@H](CC(N)=O)NC(=O)[C@H](CCC(N)=O)NC(=O)[C@@H]1CCCN1C(=O)[C@H](CCCCN)NC(=O)[C@H]1CCCN1C(=O)[C@H](N)CCCNC(=N)N)C(N)=O (some centres unmarked) [CP-0399] (HELM PEPTIDE1{[dR].[dP].K.P.Q.N.[dF].F.[dW].K.[Nle].[am]}|PEPTIDE2{[dR].R.P.[Hyp].G.F.C.[dF].L.R}|CHEM1{[O=C1CC([*:2])C(=O)N1CCCCCC(=O)[*:1]]}$PEPTIDE1,CHEM1,10:R3-1:R1|PEPTIDE2,CHEM1,7:R3-1:R2$$$V2.0)
Kb (NK1 receptor): 12.6 µM
Kb (BK2 receptor): 0.0398 µM

CCCC[C@H](NC(=O)[C@H](CC(C)C)NC(=O)[C@@H](Cc1c[nH]c2ccccc12)NC(=O)[C@H](Cc1ccccc1)NC(=O)[C@H](CCCCNC(=O)CCCCCN1C(=O)CC(SC[C@H](NC(=O)[C@H](Cc2ccccc2)NC(=O)CNC(=O)[C@@H]2C[C@@H](O)CN2C(=O)[C@@H]2CCCN2C(=O)[C@H](CCCNC(=N)N)NC(=O)[C@H](N)CCCNC(=N)N)C(=O)N[C@H](Cc2ccccc2)C(=O)N[C@@H](CC(C)C)C(=O)N[C@@H](CCCNC(=N)N)C(=O)O)C1=O)NC(=O)[C@H](CC(N)=O)NC(=O)[C@H](CCC(N)=O)NC(=O)[C@@H]1CCCN1C(=O)[C@H](CCCCN)NC(=O)[C@H]1CCCN1C(=O)[C@H](N)CCCNC(=N)N)C(N)=O (some centres unmarked) [CP-0396] (HELM PEPTIDE1{[dR].[dP].K.P.Q.N.K.F.[dW].L.[Nle].[am]}|PEPTIDE2{[dR].R.P.[Hyp].G.F.C.[dF].L.R}|CHEM1{[O=C1CC([*:2])C(=O)N1CCCCCC(=O)[*:1]]}$PEPTIDE1,CHEM1,7:R3-1:R1|PEPTIDE2,CHEM1,7:R3-1:R2$$$V2.0)
NK1 : GPI pA2 (± s.e.m.) (NK1 receptor): Inactive
Kb (BK2 receptor): 0.01 µM
